Consider 1 compound from paper PMC7556031, “Tofacitinib and Baricitinib Are Taken up by Different Uptake Mechanisms Determining the Efficacy of Both Drugs in RA” (International Journal of Molecular Sciences, 2020).

In this assay the target is T1, hMATE1 (multidrug and toxin extrusion protein 1) (Homo sapiens, UniProt Q96FL8).
T1 construct: gene SLC47A1; hMATE1 stably transfected in HEK293 cells
T1 sequence (Q96FL8 1-570): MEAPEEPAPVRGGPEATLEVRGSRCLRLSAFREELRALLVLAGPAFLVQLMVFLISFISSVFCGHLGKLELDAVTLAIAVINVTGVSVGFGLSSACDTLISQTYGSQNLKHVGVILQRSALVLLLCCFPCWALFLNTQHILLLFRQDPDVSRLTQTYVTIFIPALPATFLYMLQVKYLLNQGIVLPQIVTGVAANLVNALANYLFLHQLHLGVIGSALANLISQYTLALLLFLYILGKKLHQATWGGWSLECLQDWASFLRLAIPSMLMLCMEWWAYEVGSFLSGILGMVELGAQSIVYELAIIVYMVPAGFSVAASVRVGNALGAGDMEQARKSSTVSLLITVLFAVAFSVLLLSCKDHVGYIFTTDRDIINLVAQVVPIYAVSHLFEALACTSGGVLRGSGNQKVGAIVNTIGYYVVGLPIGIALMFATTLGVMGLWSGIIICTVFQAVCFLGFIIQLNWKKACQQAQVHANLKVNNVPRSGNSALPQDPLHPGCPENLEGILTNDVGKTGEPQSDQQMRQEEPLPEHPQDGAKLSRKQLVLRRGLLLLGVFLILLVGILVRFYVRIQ
The assay can be described thus: cis-inhibition of ASP+ uptake in hMATE1-HEK293 cells after acidification; supported by LC/MS of temperature-dependent tofacitinib export. The format is cell-based.

With `C[C@@H]1CCN(C(=O)CC#N)C[C@@H]1N(C)c1ncnc2[nH]ccc12` [Tofacitinib], the IC50 was determined as 19.8 µM.

For orientation: IC50 means the concentration needed to halve the response being measured. Lower therefore signals inhibition by little substance.
